Values of other authors as cited in patent US20080193567A1, “Pharmaceutical Canscora Diffusa-Containing Composition” (priority 2004, published 2008).

Legend:
[1] = interpreted as an effect against stress and anxiety
[2] = animal experiments
[3] = system: Mycobacterium tuberculosis

| Molecule | adaptogenic effect [1] | spermicidal effect [2] | effect against Mycobacterium tuberculosis [3] |
| --- | --- | --- | --- |
| COc1ccc([C@@H]2CCc3c(O[C@@H]4O[C@H](CO)[C@@H](O)[C@H](O)[C@H]4O)cc(O)cc3O2)cc1OC [Diffutin] | “adaptogenic” effect | – | – |
| COc1ccc([C@@H]2CCc3c(O[C@@H]4OC(CO)[C@@H](O)[C@H](O)C4O)cc(OC)cc3O2)cc1 (some centres unmarked) [dichotosin] | “adaptogenic” effect | – | – |
| O=c1c2cc(O)c(O)cc2oc2cc(O)c([C@@H]3O[C@H](CO)[C@@H](O)[C@H](O)[C@H]3O)c(O)c12 [magniferin] | – | spermicidal effect | small effect |
| dichotosinin | “adaptogenic” effect | – | – |
